Laboratory results: patent US20260207605A1, “KRAS G12D INHIBITORS AND USES THEREOF” (Abbisko Therapeutics Co., Ltd., priority 2022, published 2026)
Like-named read-outs stand apart in the source and are kept apart here.

What was measured:
AsPC-1 = assay: Anti-proliferative 2D CTG assay, AsPC-1; assay type: cell-based; details: Homo sapiens, ASPC1, 96 h, AsPC-1 cells, 4 days incubation, read-out: AsPC-1 cell IC50
Method: (§1) 1.1 Day 0 Cell Culture and Plating
(§2) Cells in a logarithmic growth phase were harvested and the cells were counted by using a […]. Cell viability was tested by using a trypan blue exclusion method to ensure that cell viability was above 90%. The cell concentration was adjusted to the desired final density, and 90 μL of cell suspension was added to a 96-well plate, then the cells were incubated overnight at 37° C., 5% CO2 and 95% humidity.
(§3) 10 μL PBS was added to each well of the TO plate containing cells. The CTG reagent was thawed and the plate was equilibrated to room temperature for 30 minutes. The CTG solution of 50 µL/well was added to each well. The cells were lysed by shaking on an orbital shaker for 5 minutes. The plate was left at room temperature for 20 minutes to stabilize the luminescence signal. The TO fluorescence signal value was read.
(§4) From the 10 mM stock solution, with a ratio of 1:5, 9-point serial dilutions were performed. The 10× medium containing the compound was transferred into corresponding wells of the 96 wells. The final maximum compound concentration was […] and the final DMSO concentration was 0.1%. The 96-well plate was placed in a 37° C. incubator and incubated for 4 days.
(§5) 50 μL/well of detection reagent (CTG) was added to the cells, and the signal was read in an Envision machine.
(§6) The percent inhibition (%) at each compound concentration was calculated from the signal in the HPE and ZPE control wells and the fluorescence signal in the individual compound wells included in each assay plate. […] The compound concentration required for inhibitory concentration at 50% (IC50) was determined using a four-parameter logarithmic dose-response equation by testing the concentration of the compound and the inhibition percentage value. The endpoint value (IC50) of the reference compound was assessed in each experiment as a quality control measure. If the endpoint value is within three times the expected value, the experiment may be considered acceptable.

KRAS^G12D/cRAF = KRAS^G12D/cRAF (Homo sapiens, UniProt P01116, G12D); assay: KRAS G12D/cRAF binding test (Alphalisa); details: His-tagged KRAS G12D with GMPPNP, GST-tagged cRAF
Sequence of KRAS^G12D/cRAF (P01116 1-188 isoform P01116-2 G12D): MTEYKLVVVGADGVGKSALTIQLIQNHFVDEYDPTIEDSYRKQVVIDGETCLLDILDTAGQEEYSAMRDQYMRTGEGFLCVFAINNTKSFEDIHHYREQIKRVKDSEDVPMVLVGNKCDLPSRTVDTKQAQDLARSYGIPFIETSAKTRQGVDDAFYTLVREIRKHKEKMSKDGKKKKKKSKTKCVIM
Method: The compound was dissolved in 100% DMSO at a starting concentration of 5 mM and diluted in DMSO with a 3-fold serial dilution method for a total of 8 concentration points. 1 μL of the compound or DMSO at each concentration point was added into 99 μL of the experimental buffer to obtain 10× stock solution.
The ratio for each compound concentration was calculated from the signal of the DMSO control group contained in each assay plate and the Alphalisa signal in each compound well. The compound concentration required for inhibitory concentration at 50% (IC50) was determined using a four-parameter logarithmic dose-response equation by testing the concentration of the compound and the value of the ratio. The endpoint value (IC50) of the reference compound was assessed in each experiment as a quality control measure. If the endpoint value is within three times the expected value, the experiment may be considered acceptable.

AGS = assay: Anti-proliferative 2D CTG assay, AGS; assay type: cell-based; details: AGS cells, 4 days incubation, read-out: AGS cell IC50
Method: as §1, §2, §3, §4, §5, §6

[1] = Pharmacokinetic experiment in mice (single PO or IV administration); details: male, ICR, mouse, plasma
From the text: The purpose of this trial is to study the pharmacokinetic behavior of some compounds of the present invention, and the administration method is: single oral administration (PO) or intravenous administration (IV) to ICR mice.
ICR mice male N=9 original source: Shanghai Sippr-Bk Lab Animal Co., Ltd.
The compounds were weighed and dissolved in the corresponding solution (0.5% CMC+1% tween water solution or 10% PG+10% Solutol®+80% pH3 citrate buffer). The mixture was then shaken well and sonicated to prepare a 1 mg/mL stock solution. Nine mice were orally administered at a dose of 10 mg/kg or intravenously administered at a dose of 2 mg/kg after an overnight fast.
About 90 μL of blood was collected via the submandibular vein per time point, heparin sodium anticoagulant was added, the sample was placed on ice after collection, and plasma was centrifuged within 1 hour (centrifugation conditions: 8,000 rpm, 6 minutes, 2-8° C.). The blood collection timepoints were 0, 0.25, 0.5, 1, 2, 4, 6, 8 and 24 h. The samples were stored in a −20° C. refrigerator.
The plasma sample was 40 μL, 160 μL of ice-cold acetonitrile containing internal standard was added, vortexed for 3 minutes, and centrifuged at 11,000 rpm for 5 minutes. 100 μL of the supernatant was taken and added to 100 μL of water, 5 μL of the sample was taken and injected into LC/MS/MS for analysis.

Compound C#Cc1c(F)ccc2cc(O)cc(-c3ncc4c(N5C[C@@H]6CC[C@](C7CC7)(C5)N6)nc(OC[C@@]56CCCN5CC(=C)C6)nc4c3F)c12 [Example 29, 4-(4-((1S,5S)-1-cyclopropyl-3,8-diazabicyclo[3.2.1]octan-3-yl)-8-fluoro-2-(((S)-2-methylenetetrahydro-1H-pyrrolizin-7a(5H)-yl)methoxy)pyrido[4,3-d]pyrimidin-7-yl)-5-ethynyl-6-fluoronaphthalen-2-ol] has an IC50 (AsPC-1) of 0.102 µM, an IC50 (KRAS^G12D/cRAF) of 0.025 µM and an IC50 (AGS; Homo sapiens, AGS, 96 h) of 0.021 µM.

[2H]C([2H])([2H])[C@@]12CC[C@@H](CN(c3nc(OC[C@@]45CCCN4C/C(=C\F)C5)nc4c(F)c(-c5cc(O)cc6ccc(F)c(C#C)c56)ncc34)C1)N2 [Example 53, 5-ethynyl-6-fluoro-4-(8-fluoro-2-(((S,Z)-2-(fluoromethylene)tetrahydro-1H-pyrrolizin-7a(5H)-yl)methoxy)-4-((1R,5S)-1-(methyl-d3)-3,8-diazabicyclo [3.2.1]octan-3-yl)pyrido[4,3-d]pyrimidin-7-yl)naphthalen-2-ol] showed an IC50 (KRAS^G12D/cRAF) of 0.0166 µM and an IC50 (AGS; Homo sapiens, AGS, 96 h) of 0.001 µM.

Work on [2H]C([2H])([2H])Oc1nc(-c2cc(O)cc3ccc(F)c(C#C)c23)c(F)c2nc(OCC34CC(=C)CN3CC(=C)C4)nc(N3CC4CCC(CC)(C3)N4)c12 (stereo not drawn) [Example 201, 4-(2-((2,6-dimethylenetetrahydro-1H-pyrrolizin-7a(5H)-yl)methoxy)-4-(1-ethyl-3,8-diazabicyclo[3.2.1]octan-3-yl)-8-fluoro-5-(methoxy-d3)pyrido[4,3-d]pyrimidin-7-yl)-5-ethynyl-6-fluoronaphthalen-2-ol] yielded an IC50 (AGS; Homo sapiens, AGS, 96 h) of 0.0216 µM.

With C#Cc1c(F)ccc2cc(O)cc(-c3ncc4c(N5C[C@H]6CC[C@@H](C5)N6)nc(OC[C@@]56CCCN5C/C(=C/F)C6)nc4c3F)c12 [Reference Compound 2, 4-(4-((1R,5S)-3,8-diazabicyclo [3.2.1]octan-3-yl)-8-fluoro-2-(((S,E)-2-(fluoromethylene)tetrahydro-1H-pyrrolizin-7a(5H)-yl)methoxy)pyrido[4,3-d]pyrimidin-7-yl)-5-ethynyl-6-fluoronaphthalen-2-ol, reference compound] the AUC ([1]; iv, 2 mg/kg) was 0.718 µg·h/mL, the Cmax ([1]; iv, 2 mg/kg) was 1.35 µg/mL and the half-life ([1]; iv, 2 mg/kg) was 14.1 h. For the same compound, the AUC ([1]; po, 10 mg/kg) was 0.0432 µg·h/mL, the Cmax ([1]; po, 10 mg/kg) was 0.0277 µg/mL and the bioavailability ([1]; po, 10 mg/kg) was 1.2%. It also gave a half-life ([1]; po, 10 mg/kg) of 2.3 h.

[2H]C([2H])([2H])OCC12CCC(CN(c3nc(OCC45CC(=C)CN4CC(=C)C5)nc4c(F)c(-c5cc(O)cc6ccc(F)c(C#C)c56)nc(OC)c34)C1)N2 (single isomer, unassigned) [Example 173] showed an IC50 (AGS; Homo sapiens, AGS, 96 h) of 0.0264 µM.

With C#Cc1c(F)ccc2cc(O)cc(-c3ncc4c(N5C[C@@H]6CC[C@](CC)(C5)N6)nc(OC[C@@]56CCCN5C/C(=C/F)C6)nc4c3F)c12 [Example 80, 4-(4-((1R,5S)-1-ethyl-3,8-diazabicyclo[3.2.1]octan-3-yl)-8-fluoro-2-(((S,E)-2-(fluoromethylene)tetrahydro-1H-pyrrolizin-7a (5H)-yl)methoxy)pyrido[4,3-d]pyrimidin-7-yl)-5-ethynyl-6-fluoronaphthalen-2-ol] the IC50 (AsPC-1) was 0.0396 µM, the IC50 (KRAS^G12D/cRAF) was 0.0062 µM and the IC50 (AGS; Homo sapiens, AGS, 96 h) was 0.0058 µM.

For [2H]C([2H])([2H])OC[C@@]12CC[C@@H](CN(c3nc(OC[C@@]45CCCN4C/C(=C\F)C5)nc4c(F)c(-c5cc(O)cc6ccc(F)c(C#C)c56)ncc34)C1)N2 [Example 61, 5-ethynyl-6-fluoro-4-(8-fluoro-2-(((Z)-2-(fluoromethylene)tetrahydro-1H-pyrrolizin-7a(5H)-yl)methoxy)-4-((1R,5S)-1-((methoxy-d3)methyl)-3,8-diazabicyclo[3.2.1]octan-3-yl)pyrido[4,3-d]pyrimidin-7-yl)naphthalen-2-ol], the IC50 (AsPC-1) was 0.0379 µM, the IC50 (KRAS^G12D/cRAF) was 0.0025 µM and the IC50 (AGS) was 0.0034 µM.

Work on [2H]C([2H])([2H])OCC12CCC(CN(c3nc(OCC45CC(=C)CN4CC(=C)C5)nc4c(F)c(-c5cc(O)cc6ccc(F)c(C#C)c56)ncc34)C1)N2 (stereo not drawn) [Example 1, 4-(2-((2,6-dimethylenetetrahydro-1H-pyrrolizin-7a(5H)-yl)methoxy)-8-fluoro-4-(1-((methoxy-d3)methyl)-3,8-diazabicyclo[3.2.1]octan-3-yl)pyrido[4,3-d]pyrimidin-7-yl)-5-ethynyl-6-fluoronaphthalen-2-ol] yielded an IC50 (KRAS^G12D/cRAF) of 0.0374 µM and an IC50 (AGS; Homo sapiens, AGS, 96 h) of 0.0229 µM.

Work on C#Cc1c(F)ccc2cc(O)cc(-c3ncc4c(N5C[C@H]6CC[C@@H](C5)N6)nc(OC[C@@]56CCCN5C/C(=C\F)C6)nc4c3F)c12 [Reference Compound 1, 4-(4-((1R,5S)-3,8-diazabicyclo [3.2.1]octan-3-yl)-8-fluoro-2-(((S,Z)-2-(fluoromethylene)tetrahydro-1H-pyrrolizin-7a(5H)-yl)methoxy)pyrido[4,3-d]pyrimidin-7-yl)-5-ethynyl-6-fluoronaphthalen-2-ol, reference compound] yielded an AUC ([1]; iv, 2 mg/kg) of 0.688 µg·h/mL, a Cmax ([1]; iv, 2 mg/kg) of 1.69 µg/mL and a half-life ([1]; iv, 2 mg/kg) of 10.5 h. For the same compound, the AUC ([1]; po, 10 mg/kg) was 0.0826 µg·h/mL, the Cmax ([1]; po, 10 mg/kg) was 0.0332 µg/mL and the bioavailability ([1]; po, 10 mg/kg) was 2.4%. For the same compound, the half-life ([1]; po, 10 mg/kg) was 2.6 h.

C#Cc1c(F)ccc2cc(O)cc(-c3ncc4c(N5C[C@@H]6CC[C@](COC)(C5)N6)nc(OC[C@@]56CCCN5C/C(=C/F)C6)nc4c3F)c12 [Example 82, 5-ethynyl-6-fluoro-4-(8-fluoro-2-(((S,E)-2-(fluoromethylene)tetrahydro-1H-pyrrolizin-7a (5H)-yl)methoxy)-4-((1R,5S)-1-(methoxymethyl)-3,8-diazabicyclo [3.2.1]octan-3-yl)pyrido[4,3-d]pyrimidin-7-yl)naphthalen-2-ol] showed an IC50 (KRAS^G12D/cRAF) of 0.0081 µM.

With C#Cc1c(F)ccc2cc(O)cc(-c3ncc4c(N5CC6CCC(COC)(C5)N6)nc(OCC56CC(=C)CN5CC(=C)C6)nc4c3F)c12 (stereo not drawn) [Example 8, 4-(2-((2,6-dimethylenetetrahydro-1H-pyrrolizin-7a(5H)-yl)methoxy)-8-fluoro-4-(1-(methoxymethyl)-3,8-diazabicyclo[3.2.1]octan-3-yl)pyrido[4,3-d]pyrimidin-7-yl)-5-ethynyl-6-fluoronaphthalen-2-ol] the IC50 (AGS; Homo sapiens, AGS, 96 h) was 0.0368 µM.

Compound C#Cc1c(F)ccc2cc(O)cc(-c3ncc4c(N5C[C@H]6CC[C@@H](C5)N6)nc(OC[C@@]56CCCN5CC(=C)C6)nc4c3F)c12 [Reference Compound 3, 4-(4-((1R,5S)-3,8-diazabicyclo [3.2.1]octan-3-yl)-8-fluoro-2-(((S)-2-methylenetetrahydro-1H-pyrrolizin-7a(5H)-yl)methoxy)pyrido[4,3-d]pyrimidin-7-yl)-5-ethynyl-6-fluoronaphthalen-2-ol, reference compound] has an AUC ([1]; po, 10 mg/kg) of 0.0271 µg·h/mL, a Cmax ([1]; po, 10 mg/kg) of 0.0107 µg/mL and a half-life ([1]; po, 10 mg/kg) of 2.6 h.

C#Cc1c(F)ccc2cc(O)cc(-c3ncc4c(N5CC6CCC(C(C)(C)O)(C5)N6)nc(OCC56CC(=C)CN5CC(=C)C6)nc4c3F)c12 (stereo not drawn) [Example 2, 4-(2-((2,6-dimethylenetetrahydro-1H-pyrrolizin-7a(5H)-yl)methoxy)-8-fluoro-4-(1-(2-hydroxypropan-2-yl)-3,8-diazabicyclo[3.2.1]octan-3-yl)pyrido[4,3-d]pyrimidin-7-yl)-5-ethynyl-6-fluoronaphthalen-2-ol] gave an IC50 (KRAS^G12D/cRAF) of 0.0482 µM and an IC50 (AGS; Homo sapiens, AGS, 96 h) of 0.251 µM.

With [2H]C([2H])([2H])C([2H])([2H])[C@@]12CC[C@@H](CN(c3nc(OC[C@@]45CCCN4C/C(=C\F)C5)nc4c(F)c(-c5ccc(F)c6sc(N)c(C#N)c56)c(Cl)cc34)C1)N2 [Example 360, 2-amino-4-(6-chloro-4-((1R,5S)-1-(ethyl-d5)-3,8-diazabicyclo [3.2.1]octan-3-yl)-8-fluoro-2-(((S,Z)-2-(fluoromethylene)tetra-hydro-1H-pyrrolizin-7a(5H)-yl)methoxy)quinazolin-7-yl)-7-fluoro-benzo[b]thiophene-3-carbonitrile] the IC50 (KRAS^G12D/cRAF) was 0.0202 µM.

Compound [2H]C([2H])([2H])Oc1nc(-c2cc(O)cc3ccc(F)c(C#C)c23)c(F)c2nc(OC[C@@]34CCCN3C/C(=C\F)C4)nc(N3CC4CCC(CC)(C3)N4)c12 (stereo partly drawn) [Example 204, 4-(4-(1-ethyl-3,8-diazabicyclo [3.2.1]octan-3-yl)-8-fluoro-2-(((S,Z)-2-(fluoromethylene)tetrahydro-1H-pyrrolizin-7a(5H)-yl)methoxy)-5-(methoxy-d3)pyrido [4,3-d]pyrimidin-7-yl)-5-ethynyl-6-fluoronaphthalen-2-ol] has an IC50 (KRAS^G12D/cRAF) of 0.0039 µM and an IC50 (AGS; Homo sapiens, AGS, 96 h) of 0.0051 µM.
